Test results: publication PMC11436757, “BRCA2 stabilises RAD51 and DMC1 nucleoprotein filaments through a conserved interaction mode” (Nature Communications, 2024)
Entries after “also recorded” stand apart in the source; their conditions may differ. No end group written: not given here.

Legend:
RAD51-ssDNA filaments = test: EMSA, protection of RAD51-ssDNA filaments from BRC4-mediated disruption (random sequence ssDNA); assay type: biochemical; settings: 100-nt random ssDNA; 10-fold excess of Ex27
Method: (§1) To form nucleoprotein filaments, DMC1 and RAD51 was incubated with fluorescent 100-base ssDNA (5’-FAM- […]-3’) at the concentrations indicated in the figures for 30 minutes at 4 °C in reaction buffer. For DMC1, reaction buffer is 25 mM TEA (triethanolamine) pH 7.5, 1 mM ATP, 2 mM MgCl2, 0.1 mg/ml BSA, 2 mM DTT, 200 mM KCl. For RAD51, reaction buffer is 50 mM TEA (triethanolamine), 2 mM ATP, 0.5 mM MgCl2, 2 mM DTT. For assays requiring incomplete nucleoprotein filament assembly, the reaction buffer consisted of 50 mM TAE (tris, acetate, EDTA) pH 7.5, 2 mM ATP, 2 mM MgCl2, 2 mM DTT. In nucleoprotein formation stimulation assays or supershift experiments, BRCA2Ex14 or BRCA2Ex14-AAA were added for a further 30 min at 4 °C. […] Glycerol was added at a final concentration of 3%, and samples were analysed by electrophoresis on a 1% (w/v) (for DMC1) or 0.66% (w/v) (for RAD51) agarose gel in 0.5x TAE pH 8.0 at 20–40 V for ~4 h at 4 °C. DNA was detected by FAM using a Typhoon^TM FLA 9500 (GE Healthcare), with 473 nm laser at excitation wavelength 490 nm and emission wavelength 520 nm, using the LPB filter and a PMT voltage of 500 V. To analyse RAD51 nucleoprotein filaments assembled upon 100-base poly(dT) ssDNA, gels were stained post-run using SYBR^TM Gold Nucleic Acid Gel Stain (Invitrogen) and detected using a Typhoon^TM FLA 9500 (GE Healthcare).

[1] = tested on: RAD51-ssDNA (polydT) filaments; test: EMSA, protection of RAD51-ssDNA (polydT) filaments from BRC4-mediated disruption; assay type: biochemical
Method: as §1

[2] = tested on: RAD51 L180E-ssDNA (polydT) filaments; test: EMSA, protection of RAD51 L180E-ssDNA (polydT) filaments from BRC4-mediated disruption; assay type: biochemical; settings: 100-nt polydT
Method: as §1

DMC1 ΔN V179E = test: Amylose pull-down of His-DMC1 ΔN V179E with MBP-BRCA2 fusions; assay type: binding, human; settings: lysates mixed; MBP-BRCA2 fusion; 20 mM Tris pH 8.0, 500 mM KCl, 2 mM DTT
Method: For affinity experiments involving DMC1 ΔN V179E and F85E, MBP-fusions of BRCA2 fragments (Ex14, amino-acids 2387-2420, Ex14-Tr, amino acids 2401-2414, BRC4, amino acids 1519-1551) were cloned into pMAT11 vectors and DMC1 ΔN mutants (V179E or F85E) were cloned into pHAT4 vectors. Lysates of bacterial cultures expressing His6-DMC1 mutants or MBP-BRCA2 constructs were mixed, and complexes were purified through amylose affinity chromatography in 20 mM Tris pH 8.0, 500 mM KCl, 2 mM DTT and eluted using 30 mM D-maltose.

DMC1-ssDNA filaments [3] = test: EMSA, stimulation of DMC1-ssDNA filament formation (TAE pH 7.5); assay type: biochemical, human; settings: TAE pH 7.5
Text: (§2) What is the function of the BRCA2 Ex14-DMC1 interaction? We used electrophoretic mobility shift assays (EMSAs) to determine the impact of BRCA2-binding on DMC1 nucleoprotein filaments. We used two different conditions for nucleoprotein filament assembly. Firstly, a TAE (tris, acetate, EDTA; pH 7.5) buffer that was previously used for RAD51-ssDNA filaments, in which DMC1-ssDNA filaments were partially formed at the canonical ratio of three nucleotides to one protomer (Fig. 3a). Secondly, a TEA (triethanolamine; pH 7.5) + KCl buffer based on previous DMC1 studies[36]–[38], in which DMC1-ssDNA filament formation was more complete at the canonical ratio (Fig. 3b). […] This was noticeable using Ex14 in equimolar amounts (11 μM), and became substantial at a 5-fold stoichiometric excess (55 μM) (Fig. 3b). As the KD of the DMC1-Ex14 interaction is approximately 30 μM (Fig. 2a), the requirement for a stoichiometric excess is likely due to binding being favoured at Ex14 concentrations above the KD.
as §1

DMC1-ssDNA filaments [4] = test: EMSA, super-shift of DMC1-ssDNA filaments (TEA pH 7.5 + KCl); assay type: biochemical, human
Text: as §2, §1

Substance: Ex27: BRCA2 exon 27 PhePP peptide, amino acids 3270-3315 (ALDFLSRLPLPPPVSPICTFVSPAAQKAFQPPRSCGTKYETPIKKK; UniProt P51587 3270-3315, looked up, fragment)
- protection of RAD51-ssDNA filaments from BRC4-mediated disruption (RAD51-ssDNA filaments): less complete; also recorded: not complete; also recorded: protected against BRC4-mediated disruption
- protection of RAD51-ssDNA (polydT) filaments from BRC4-mediated disruption ([1]; 3-fold excess of Ex27 (33 μM), 10-fold excess of BRC4): some protection; also recorded: protection at a 3-fold excess
- protection of RAD51-ssDNA (polydT) filaments from BRC4-mediated disruption ([1]; 100-nt polydT, 10-fold excess of Ex27): protects; also recorded: full protection; also recorded: complete protection
- protection of RAD51-ssDNA filaments from BRC4-mediated disruption ([1]; equimolar Ex27 (11 µM), 10-fold excess of BRC4): no protection
- protection of RAD51 L180E-ssDNA (polydT) filaments from BRC4-mediated disruption [2]: not protected; also recorded: almost entirely lost; also recorded: abrogated

Substance: ATRNEKMRHLITTGRPTKVFVPPFKTKSHFHRVE [Ex14]
- binding in pull-down (DMC1 ΔN V179E): failed to interact; also recorded: blocked its ability to bind Ex14
- stimulation of DMC1-ssDNA filament formation upon changing order of addition (DMC1-ssDNA filaments [3]; Ex14 added after DMC1-ssDNA, with DMC1 prior to ssDNA, or with ssDNA prior to DMC1): same degree; also recorded: same stimulation; also recorded: order of addition did not affect
- stimulation of DMC1-ssDNA nucleoprotein filament formation (DMC1-ssDNA filaments [3]; 100-nt random ssDNA, 4 °C, canonical ratio of three nucleotides to one protomer, equimolar for Ex14): stimulates DMC1-ssDNA nucleoprotein filament assembly, achieving complete DMC1-ssDNA filament formation; also recorded: promoted the formation of DMC1-ssDNA filaments
- super-shift of pre-formed DMC1-ssDNA filaments (DMC1-ssDNA filaments [4]; 5-fold stoichiometric excess (55 μM)): substantial
- super-shift of pre-formed DMC1-ssDNA filaments (DMC1-ssDNA filaments [4]; 100-nt random ssDNA, 4 °C): inducing a super-shift; also recorded: induced a super-shift
- super-shift of pre-formed DMC1-ssDNA filaments (DMC1-ssDNA filaments [4]; equimolar (11 μM)): noticeable
